# Results: publication PMC5834492, “Antimycobacterial drug discovery using Mycobacteria-infected amoebae identifies anti-infectives and new molecular targets” (Scientific Reports, 2018)
# Test system: M. marinum luxCDABE
# Type: cell-based, Mycobacterium marinum
# Conditions: not given
row,SMILES,Antibiotic assays: M. marinum luxCDABE
1,COc1ccc2cc(C(=O)Nc3ccc(C4CCN(C)CC4)cc3)sc2c1 [GSK1635139A],1.00
2,O=C(Nc1nc(-c2ccccn2)cs1)c1cncn1-c1ccccc1 [GSK1691553A],0.07
3,O=C(N[C@@H](Cc1ccccc1)C(=O)Nc1ccccc1N1CCOCC1)c1cccs1 [GSK1729177A],0.00
4,O=C(NCc1ccccc1F)N1CCN(Cc2ccc(Br)s2)CC1 [GSK1758774A],1.00
5,COc1ccc(-c2ccc(Nc3cccc(S(=O)(=O)CCNCCc4cccs4)c3)nc2)cn1 [GSK1826089A],0.085
6,COc1ccc(CC(=O)Nc2c(-c3cccs3)nc3cc(C)ccn23)cc1 [GSK1857145A],1.00
7,Cc1ccc(SCCNC(=O)c2c(-c3ccccc3)noc2C)cc1 [GSK1863309A],0.00
8,O=C(C1CCN(c2nnc(-n3cccc3)s2)CC1)N1CCC(Cc2ccccc2)CC1 [GSK2032710A],0.00
9,CCc1ccc(CN2CCC3(CC2)OCCc2sccc23)s1 [GSK2200160A],0.35
10,COc1cc(Cc2cnc(N)nc2N)c2cnccc2c1N(C)C [GW360240X],0.74
11,O=C(C=Cc1ccccc1)N1CCN(Cc2ccc3c(c2)OCO3)CC1 [SB-516933],0.41

# Test system: BV2 cells
# Conditions: not given
row,SMILES,Growth inhibition / Cytotoxicity assays: BV2 cells
1,COc1ccc2cc(C(=O)Nc3ccc(C4CCN(C)CC4)cc3)sc2c1 [GSK1635139A],False
2,O=C(Nc1nc(-c2ccccn2)cs1)c1cncn1-c1ccccc1 [GSK1691553A],False
3,O=C(N[C@@H](Cc1ccccc1)C(=O)Nc1ccccc1N1CCOCC1)c1cccs1 [GSK1729177A],True
4,O=C(NCc1ccccc1F)N1CCN(Cc2ccc(Br)s2)CC1 [GSK1758774A],False
5,COc1ccc(-c2ccc(Nc3cccc(S(=O)(=O)CCNCCc4cccs4)c3)nc2)cn1 [GSK1826089A],False
6,COc1ccc(CC(=O)Nc2c(-c3cccs3)nc3cc(C)ccn23)cc1 [GSK1857145A],False
7,Cc1ccc(SCCNC(=O)c2c(-c3ccccc3)noc2C)cc1 [GSK1863309A],False
8,O=C(C1CCN(c2nnc(-n3cccc3)s2)CC1)N1CCC(Cc2ccccc2)CC1 [GSK2032710A],False
9,CCc1ccc(CN2CCC3(CC2)OCCc2sccc23)s1 [GSK2200160A],False
10,COc1cc(Cc2cnc(N)nc2N)c2cnccc2c1N(C)C [GW360240X],False
11,O=C(C=Cc1ccccc1)N1CCN(Cc2ccc3c(c2)OCO3)CC1 [SB-516933],False

# Test system: Mtb H37Rv
# Design: method as in Sorrentino et al, 2015
# Conditions: ref Sorrentino et al, 2015; cited from earlier work
row,SMILES,Extracellular MIC90
1,COc1ccc2cc(C(=O)Nc3ccc(C4CCN(C)CC4)cc3)sc2c1 [GSK1635139A],9.5 µM
2,O=C(Nc1nc(-c2ccccn2)cs1)c1cncn1-c1ccccc1 [GSK1691553A],7.9 µM
3,O=C(N[C@@H](Cc1ccccc1)C(=O)Nc1ccccc1N1CCOCC1)c1cccs1 [GSK1729177A],6.6 µM
4,O=C(NCc1ccccc1F)N1CCN(Cc2ccc(Br)s2)CC1 [GSK1758774A],6.6 µM
5,COc1ccc(-c2ccc(Nc3cccc(S(=O)(=O)CCNCCc4cccs4)c3)nc2)cn1 [GSK1826089A],7.6 µM
6,COc1ccc(CC(=O)Nc2c(-c3cccs3)nc3cc(C)ccn23)cc1 [GSK1857145A],6.8 µM
7,Cc1ccc(SCCNC(=O)c2c(-c3ccccc3)noc2C)cc1 [GSK1863309A],7.8 µM
8,O=C(C1CCN(c2nnc(-n3cccc3)s2)CC1)N1CCC(Cc2ccccc2)CC1 [GSK2032710A],4.2 µM
9,CCc1ccc(CN2CCC3(CC2)OCCc2sccc23)s1 [GSK2200160A],1 µM
10,COc1cc(Cc2cnc(N)nc2N)c2cnccc2c1N(C)C [GW360240X],3 µM
11,O=C(C=Cc1ccccc1)N1CCN(Cc2ccc3c(c2)OCO3)CC1 [SB-516933],3.7 µM

# Test system: D. discoideum GFP-ABD
# Conditions: not given
row,SMILES,Growth inhibition / Cytotoxicity assays: D. discoideum GFP-ABD
1,COc1ccc2cc(C(=O)Nc3ccc(C4CCN(C)CC4)cc3)sc2c1 [GSK1635139A],0.78
2,O=C(Nc1nc(-c2ccccn2)cs1)c1cncn1-c1ccccc1 [GSK1691553A],0.80
3,O=C(N[C@@H](Cc1ccccc1)C(=O)Nc1ccccc1N1CCOCC1)c1cccs1 [GSK1729177A],1.04
4,O=C(NCc1ccccc1F)N1CCN(Cc2ccc(Br)s2)CC1 [GSK1758774A],0.85
5,COc1ccc(-c2ccc(Nc3cccc(S(=O)(=O)CCNCCc4cccs4)c3)nc2)cn1 [GSK1826089A],0.69
6,COc1ccc(CC(=O)Nc2c(-c3cccs3)nc3cc(C)ccn23)cc1 [GSK1857145A],0.93
7,Cc1ccc(SCCNC(=O)c2c(-c3ccccc3)noc2C)cc1 [GSK1863309A],0.97
8,O=C(C1CCN(c2nnc(-n3cccc3)s2)CC1)N1CCC(Cc2ccccc2)CC1 [GSK2032710A],1.04
9,CCc1ccc(CN2CCC3(CC2)OCCc2sccc23)s1 [GSK2200160A],0.03
10,COc1cc(Cc2cnc(N)nc2N)c2cnccc2c1N(C)C [GW360240X],1.13
11,O=C(C=Cc1ccccc1)N1CCN(Cc2ccc3c(c2)OCO3)CC1 [SB-516933],0.97

# Test system: M. marinum in BV2 microglial cells
# Type: cell-based, Mycobacterium marinum
# Conditions: not given
row,SMILES,Intracellular infection assays: BV2 / M. marinum
1,COc1ccc2cc(C(=O)Nc3ccc(C4CCN(C)CC4)cc3)sc2c1 [GSK1635139A],1.15
2,O=C(Nc1nc(-c2ccccn2)cs1)c1cncn1-c1ccccc1 [GSK1691553A],1.01
3,O=C(N[C@@H](Cc1ccccc1)C(=O)Nc1ccccc1N1CCOCC1)c1cccs1 [GSK1729177A],1.02
4,O=C(NCc1ccccc1F)N1CCN(Cc2ccc(Br)s2)CC1 [GSK1758774A],1.05
5,COc1ccc(-c2ccc(Nc3cccc(S(=O)(=O)CCNCCc4cccs4)c3)nc2)cn1 [GSK1826089A],1.09
6,COc1ccc(CC(=O)Nc2c(-c3cccs3)nc3cc(C)ccn23)cc1 [GSK1857145A],1.12
7,Cc1ccc(SCCNC(=O)c2c(-c3ccccc3)noc2C)cc1 [GSK1863309A],1.12
8,O=C(C1CCN(c2nnc(-n3cccc3)s2)CC1)N1CCC(Cc2ccccc2)CC1 [GSK2032710A],1.25
9,CCc1ccc(CN2CCC3(CC2)OCCc2sccc23)s1 [GSK2200160A],1.09
10,COc1cc(Cc2cnc(N)nc2N)c2cnccc2c1N(C)C [GW360240X],1.06
11,O=C(C=Cc1ccccc1)N1CCN(Cc2ccc3c(c2)OCO3)CC1 [SB-516933],1.10

# Test system: Mtb H37Rv in THP-1
# Design: method as in Sorrentino et al, 2015
# Conditions: THP1 / Mtb H37Rv infection assay; ref Sorrentino et al, 2015; cited from earlier work
row,SMILES,Intracelullar MIC90 in THP-1
1,COc1ccc2cc(C(=O)Nc3ccc(C4CCN(C)CC4)cc3)sc2c1 [GSK1635139A],50 µM
2,O=C(Nc1nc(-c2ccccn2)cs1)c1cncn1-c1ccccc1 [GSK1691553A],50 µM
3,O=C(N[C@@H](Cc1ccccc1)C(=O)Nc1ccccc1N1CCOCC1)c1cccs1 [GSK1729177A],50 µM
4,O=C(NCc1ccccc1F)N1CCN(Cc2ccc(Br)s2)CC1 [GSK1758774A],5.55 µM
5,COc1ccc(-c2ccc(Nc3cccc(S(=O)(=O)CCNCCc4cccs4)c3)nc2)cn1 [GSK1826089A],1.85 µM
6,COc1ccc(CC(=O)Nc2c(-c3cccs3)nc3cc(C)ccn23)cc1 [GSK1857145A],5.55 µM
7,Cc1ccc(SCCNC(=O)c2c(-c3ccccc3)noc2C)cc1 [GSK1863309A],16.65 µM
8,O=C(C1CCN(c2nnc(-n3cccc3)s2)CC1)N1CCC(Cc2ccccc2)CC1 [GSK2032710A],0.61 µM
9,CCc1ccc(CN2CCC3(CC2)OCCc2sccc23)s1 [GSK2200160A],0.21 µM
10,COc1cc(Cc2cnc(N)nc2N)c2cnccc2c1N(C)C [GW360240X],50 µM
11,O=C(C=Cc1ccccc1)N1CCN(Cc2ccc3c(c2)OCO3)CC1 [SB-516933],5.55 µM

# Same assay, conditions: ratio; ref Sorrentino et al, 2015; cited from earlier work
row,SMILES,Extracellular MIC90/ Inracellular MIC90
1,COc1ccc2cc(C(=O)Nc3ccc(C4CCN(C)CC4)cc3)sc2c1 [GSK1635139A],0.19
2,O=C(Nc1nc(-c2ccccn2)cs1)c1cncn1-c1ccccc1 [GSK1691553A],0.16
3,O=C(N[C@@H](Cc1ccccc1)C(=O)Nc1ccccc1N1CCOCC1)c1cccs1 [GSK1729177A],0.13
4,O=C(NCc1ccccc1F)N1CCN(Cc2ccc(Br)s2)CC1 [GSK1758774A],1.19
5,COc1ccc(-c2ccc(Nc3cccc(S(=O)(=O)CCNCCc4cccs4)c3)nc2)cn1 [GSK1826089A],4.11
6,COc1ccc(CC(=O)Nc2c(-c3cccs3)nc3cc(C)ccn23)cc1 [GSK1857145A],1.22
7,Cc1ccc(SCCNC(=O)c2c(-c3ccccc3)noc2C)cc1 [GSK1863309A],0.47
8,O=C(C1CCN(c2nnc(-n3cccc3)s2)CC1)N1CCC(Cc2ccccc2)CC1 [GSK2032710A],6.88
9,CCc1ccc(CN2CCC3(CC2)OCCc2sccc23)s1 [GSK2200160A],4.76
10,COc1cc(Cc2cnc(N)nc2N)c2cnccc2c1N(C)C [GW360240X],0.06
11,O=C(C=Cc1ccccc1)N1CCN(Cc2ccc3c(c2)OCO3)CC1 [SB-516933],0.67

# Test system: M. marinum in A. castellanii
# Type: cell-based, Mycobacterium marinum
# Conditions: not given
row,SMILES,Intracellular infection assays: A. castellanii / M. marinum
1,COc1ccc2cc(C(=O)Nc3ccc(C4CCN(C)CC4)cc3)sc2c1 [GSK1635139A],1.28
2,O=C(Nc1nc(-c2ccccn2)cs1)c1cncn1-c1ccccc1 [GSK1691553A],1.03
3,O=C(N[C@@H](Cc1ccccc1)C(=O)Nc1ccccc1N1CCOCC1)c1cccs1 [GSK1729177A],0.64
4,O=C(NCc1ccccc1F)N1CCN(Cc2ccc(Br)s2)CC1 [GSK1758774A],1.13
5,COc1ccc(-c2ccc(Nc3cccc(S(=O)(=O)CCNCCc4cccs4)c3)nc2)cn1 [GSK1826089A],1.17
6,COc1ccc(CC(=O)Nc2c(-c3cccs3)nc3cc(C)ccn23)cc1 [GSK1857145A],1.19
7,Cc1ccc(SCCNC(=O)c2c(-c3ccccc3)noc2C)cc1 [GSK1863309A],1.09
8,O=C(C1CCN(c2nnc(-n3cccc3)s2)CC1)N1CCC(Cc2ccccc2)CC1 [GSK2032710A],1.06
9,CCc1ccc(CN2CCC3(CC2)OCCc2sccc23)s1 [GSK2200160A],0.77
10,COc1cc(Cc2cnc(N)nc2N)c2cnccc2c1N(C)C [GW360240X],1.10
11,O=C(C=Cc1ccccc1)N1CCN(Cc2ccc3c(c2)OCO3)CC1 [SB-516933],1.12
